Literature values as cited in PubChem BioAssay AID1259410 (Chemical Carcinogenesis Research Information System (CCRIS), 2018).

System: rodent tumor promotion studies, tumor incidence
Experiment: CCRIS tumor promotion studies

CCC1(CC)C(=O)N=C(O)NC1=O
outcome (Carcinogen: CISPLATIN, 15663-27-1, Doses [Carcinogen]: 5 MG/KG BW GIVEN INTRAPERITONEALLY TO FEMALE RATS ON DAY 18 OF GESTATION, Doses [Promoter]: 0, 500 PPM IN DRINKING WATER BEGINNING AT 4 WK OF AGE AND CONTINUING FOR 75 WK (STUDY DURATION: 79 WK), Route [Carcinogen]: TRANSPLACENTAL, Route [Promoter]: ORAL, Species: RAT, Strain/Sex: F344/MALE): kidney: renal cell adenoma | outcome (Carcinogen: METHYL(ACETOXYMETHYL)NITROSAMINE, 56856-83-8, Doses [Carcinogen]: 0.05 MMOL/KG IN 5 ML STERILE PHOSPHATE BUFFER ONCE, Doses [Promoter]: 0, 500 PPM IN DRINKING WATER BEGINNING 2 WK POST CARCINOGEN DOSE AND CONTINUING FOR 78 WK (STUDY DURATION: 80 WK), Route [Carcinogen]: INTRAPERITONEAL, Route [Promoter]: ORAL, Species: RAT, Strain/Sex: F344/MALE): kidney: tumor | outcome (Carcinogen: N-BUTYL-N-(4-HYDROXYBUTYL)NITROSAMINE, 3817-11-6, Doses [Carcinogen]: 0.5% IN DRINKING WATER FOR 4 WK, Doses [Promoter]: 1000 PPM IN DIET BEGINNING 1 D POST CARCINOGEN DOSE FOR DURATION OF STUDY (STUDY DURATION: 36-52 WK), Route [Carcinogen]: ORAL, Route [Promoter]: ORAL, Species: RAT, Strain/Sex: F344/MALE): urinary bladder: papilloma or carcinoma | outcome (Carcinogen: N-NITROSODIETHYLAMINE, 55-18-5, Doses [Carcinogen]: 75 MG ONCE, Doses [Promoter]: 0, 500 PPM IN DRINKING WATER BEGINNING 2 WK POST CARCINOGEN DOSE AND CONTINUING FOR DURATION OF STUDY (STUDY DURATION: 5, Route [Carcinogen]: INTRAPERITONEAL, Route [Promoter]: ORAL, Species: RAT, Strain/Sex: F344/MALE): liver: hepatocellular adenoma | outcome (Carcinogen: N-NITROSODIETHYLAMINE, 55-18-5, Doses [Carcinogen]: 75 MG ONCE, Doses [Promoter]: 0, 500 PPM IN DRINKING WATER BEGINNING 2 WK POST CARCINOGEN DOSE AND CONTINUING FOR DURATION OF STUDY (STUDY DURATION: 7, Route [Carcinogen]: INTRAPERITONEAL, Route [Promoter]: ORAL, Species: RAT, Strain/Sex: F344/MALE): liver: hepatocellular carcinoma; kidney: renal tubular adenoma or adenocarcinoma | outcome (Carcinogen: N-[4-(5-NITRO-2-FURYL)-2-THIAZOLYL]FORMAMIDE, 24554-26-5, Doses [Carcinogen]: 0.2% IN DIET FOR 6 WK, Doses [Promoter]: 1000 PPM IN DIET BEGINNING 2 WK POST LAST CARCINOGEN DOSE AND CONTINUING FOR DURATION OF STUDY (STUDY DURATION: 52-68 WK, Route [Carcinogen]: ORAL, Route [Promoter]: ORAL, Species: RAT, Strain/Sex: F344/MALE): urinary bladder: papilloma or carcinoma | outcome (Carcinogen: NONE (PROMOTION OF SPONTANEOUS TUMORS), Doses [Promoter]: 500 PPM IN DIET FOR 4.5 MONTHS (STUDY DURATION: 4.5 MONTHS), Route [Promoter]: ORAL, Species: RAT, Strain/Sex: EKER (TSC2 MUTANT)/MALE): kidney: adenoma or carcinoma | outcome (Doses [Carcinogen]: 45 UMOL/KG BW GIVEN INTRAPERITONEALLY TO MOTHERS ON DAYS 16 AND 18 OF GESTATION, Doses [Promoter]: 0, 0.05% IN DRINKING WATER BEGINNING AT 4 WK OF AGE AND CONTINUING FOR 81 WK (STUDY DURATION: 85 WK), Route [Carcinogen]: TRANSPLACENTAL, Route [Promoter]: ORAL, Species: RAT, Strain/Sex: F344/MALE): kidney: tumors | outcome (Doses [Carcinogen]: 90 UMOL/KG BW GIVEN INTRAPERITONEALLY TO MOTHERS ON DAY 17 OF GESTATION, Doses [Promoter]: 0, 0.05% IN DRINKING WATER BEGINNING AT 4 WK OF AGE AND CONTINUING FOR 81 WK (STUDY DURATION: 85 WK), Route [Carcinogen]: TRANSPLACENTAL, Route [Promoter]: ORAL, Species: RAT, Strain/Sex: F344/MALE): kidney: tumors | outcome (Doses [Carcinogen]: 90 UMOL/KG ONCE IN DISTILLED WATER, Doses [Promoter]: 0, 500 PPM IN DRINKING WATER BEGINNING 2 WK POST CARCINOGEN DOSE (STUDY DURATION: 96 WK), Route [Carcinogen]: INTRAPERITONEAL, Route [Promoter]: ORAL, Species: RAT, Strain/Sex: F344/MALE): kidney: adenoma or carcinoma

Cn1cnc([N+](=O)[O-])c1S
outcome (Carcinogen: UV IRRADIATION, Doses [Carcinogen]: 0.53 J/CM2 INCREASED BY 20% EVERY 2 WK TO 1.60 J/CM2 AND MAINTAINED AT 1.60 J/CM2 UNTIL DEATH, ADMINISTERED 5 D/WK FOR 1, Doses [Promoter]: 0, 15 UG/G BEGINNING 2 WK POST FIRST CARCINOGEN DOSE ADMINISTERED 2 HR PRIOR TO EACH CARCINOGEN DOSE (STUDY DURATION: 30, Route [Carcinogen]: DERMAL, Route [Promoter]: INTRAPERITONEAL, Species: MOUSE, Strain/Sex: SKH/HRL/FEMALE): skin: tumor

CCCCCCCCCCCCCCCCCC
outcome (Carcinogen: 7,12-DIMETHYLBENZ(A)ANTHRACENE, Doses [Carcinogen]: TOP, Route [Carcinogen]: DERMAL, Route [Promoter]: DERMAL, Species: MOUSE, Strain/Sex: MALE,FEMALE): integumentary system (skin)

Oc1ccc(I)cc1
outcome (Carcinogen: 7,12-DIMETHYLBENZ(A)ANTHRACENE, Doses [Carcinogen]: TOP, Route [Carcinogen]: DERMAL, Route [Promoter]: DERMAL, Species: MOUSE, Strain/Sex: FEMALE): integumentary system (skin)

Cc1cc(O)c2c(c1)Cc1cccc(O)c1C2=O
outcome (Carcinogen: 7,12-DIMETHYLBENZ(A)ANTHRACENE, Doses [Carcinogen]: 10 NMOL ONCE, Doses [Promoter]: 50 UG 2/WK FOR 21 WK, Route [Carcinogen]: DERMAL, Route [Promoter]: DERMAL, Species: MOUSE, Strain/Sex: SENCAR/FEMALE): integumentary system (skin): papilloma | outcome (Carcinogen: 7,12-DIMETHYLBENZ[A]ANTHRACENE, 57-97-6, Doses [Carcinogen]: 6.4 UG ONCE, Doses [Promoter]: 0, 52.8 UG 1/WK FOR 10 WK BEGINNING 2 WK POST CARCINOGEN DOSE (STUDY DURATION: 32 WK), Route [Carcinogen]: DERMAL, Route [Promoter]: DERMAL, Species: MOUSE, Strain/Sex: SENCAR/FEMALE): skin: papilloma

CCCCN(CCCCO)N=O
outcome (Carcinogen: DIETHYLNITROSAMINE, 55-18-5, N-METHYLNITROSOUREA, 684-93-5, DIHYDROXY-DI-N- PROPYLNITRASAMINE, 53609-64-6, Carcinogen: DIETHYLNITROSAMINE, 55-18-5, N-METHYLNITROSOUREA, 684-93-5, DIHYDROXY-DI-N- PROPYLNITRASAMINE, 53609-64-6, Doses [Carcinogen]: 100 MG/KG/BW DEN ONCE AT BEGINNING OF STUDY THEN 20 MG/KG/BW MNU ONCE ON D 2, 5, 8 AND 11 OF STUDY FOLLOWED BY 0.1% DHPN, Doses [Promoter]: 0, 0.1% IN DRINKING WATER BEGINNING POST CARCINOGEN TREATMENT AND CONTINUING FOR DURATION OF STUDY (STUDY DURATION: 20 W, Route [Carcinogen]: INTRAPERITONEAL, INTRAPERITONEAL, ORAL, Route [Carcinogen]: INTRAPERITONEAL, INTRAPERITONEAL, ORAL, Route [Promoter]: ORAL, Species: RAT, Strain/Sex: F344/MALE): urinary bladder: transitional cell papilloma | outcome (Carcinogen: N-BIS(2-HYDROXYPROPYL)NITROSAMINE, 53609-64-6, N-ETHYL-N-HYDROXYETHYLNITROSAMINE, 13147-25-6, 3,2'-DIMETHYL-4-AMINOB, Carcinogen: N-BIS(2-HYDROXYPROPYL)NITROSAMINE, 53609-64-6, N-ETHYL-N-HYDROXYETHYLNITROSAMINE, 13147-25-6, 3,2'-DIMETHYL-4-AMINOB, Doses [Carcinogen]: 1000 MG/KG IP IN SALINE ON DAY 1 AND 4, 1500 MG/KG IG IN DISTILLED WATER ON DAY 8 AND 11, 75 MG/KG SC IN CORN OIL ON D, Doses [Carcinogen]: 1000 MG/KG IP IN SALINE ON DAY 1 AND 4, 1500 MG/KG IG IN DISTILLED WATER ON DAY 8 AND 11, 75 MG/KG SC IN CORN OIL ON D, Doses [Promoter]: 0, 0.1% IN DRINKING WATER BEGINNING 1 WK POST LAST CARCINOGEN DOSE AND CONTINUING FOR 12 WK (STUDY DURATION: 16 WK), Route [Carcinogen]: INTRAPERITONEAL, GAVAGE, SUBCUTANEOUS, Route [Carcinogen]: INTRAPERITONEAL, GAVAGE, SUBCUTANEOUS, Route [Promoter]: ORAL, Species: RAT, Strain/Sex: F344/MALE): urinary bladder: tumor

CC(C)(c1ccc(O)cc1)c1ccc(O)cc1
outcome (Carcinogen: 7,120Dimethylbenzanthracene (57-97-6), Doses [Carcinogen]: 30 mg/kg bw once to female offspring at 50 days of age, Doses [Promoter]: 0, 25, 250 ug/kg daily for 18 d from d 2 to d 20 postpartum to dams, Doses [Promoter]: 0, 25, 250 ug/kg daily for 18 d from d 2 to d 20 postpartum to dams, Route [Carcinogen]: Intragastric gavage, Route [Promoter]: Intragastric gavage, Species: Rat, Strain/Sex: Sprague Dawley CD/Female): breast tumors: incidence increased in offspring of 250 ug/kg dams; latent period
